# Tested on: Aβ42
# Assay: Detection of secreted Aβ42 with Biosource ELISA kit in H4 cells expressing APP695
# Assay type: cell-based
# Conditions: Ab42 lowering, cell based assay; read-out: Ab42 IC50
# Method: The present invention provides compositions and methods for lowering Aβ42 levels. To test whether compounds and compositions are capable of modulating Aβ levels, a sandwich enzyme-linked immunosorbent assay (ELISA) is employed to measure secreted Aβ (Aβ42 and/or Aβ40) levels. In this example, H4 cells expressing wide type APP695 are seeded at 200,000 cells/per well in 6 well plates, and incubated at 37 degree C. with 5% CO2 overnight. Cells are treated with 1.5 ml medium containing vehicle (DMSO) or a test compound at 1.25 μM, 2.5 μM, 5.0 μM and 10.0 μM (as well as other concentration if desirable) concentration for 24 hours or 48 hours. The supernatant from treated cells is collected into eppendorf tubes and frozen at −80 degree C. for future analysis.
# The amyloid peptide standard is reconstituted and frozen samples are thawed. The samples and standards are diluted with appropriate diluents and the plate is washed 4 times with Working Wash Buffer and patted dry on a paper towel. 100 μL per well of peptide standards, controls, and dilutions of samples to be analyzed is added. The plate is incubated for 2 hours while shaking on an orbital plate shaker at RT. The plate is then washed 4 times with Working Wash Buffer and patted dry on a paper towel. Detection Antibody Solution is poured into a reservoir and 100 μL /well of Detection Antibody Solution is immediately added to the plate. The plate is incubated at RT for 2 hours while shaking and then washed four times with Working Wash Buffer and patted dry on a paper towel. Secondary Antibody Solution is then poured into a reservoir and 100 μL /well of Secondary Antibody Solution is immediately added to the plate. The plate is incubated at RT for 2 hours with shaking, washed 5 times with Working Wash Buffer, and patted dry on a paper towel.
# 100 μL of stabilized chromogen is added to each well and the liquid in the wells begins to turn blue. The plate is incubated for 30 minutes at room temperature and in the dark. 100 μL of stop solution is added to each well and the plate is tapped gently to mix resulting in a change of solution color from blue to yellow. The absorbance of each well is read at 450 nm having blanked the plate reader against a chromogen blank composed of 100 μL each of stabilized chromogen and stop solution. The plate is read within 2 hours of adding the stop solution. The absorbance of the standards is plotted against the standard concentration and the concentrations of unknown samples and controls are calculated.
# These compounds were synthesized via the indicated synthetic route. Ab42 IC50 (uM) refers to IC50 value for Ab42 lowering in e.g., the assay described in Example 6.
row,Structure (SMILES),IC50
1,O=C(O)CCCc1ccc(-n2c(-c3ccc4c(c3)OCO4)cc3c4ccccc4ccc32)cc1,8.9 µM
2,Cc1onc(-c2ccccc2)c1-c1cc2c3ccccc3ccc2n1-c1cccc(-c2nn[nH]n2)c1,31 µM
3,c1ccc(-c2cc3c(n2-c2cccc(-c4nn[nH]n4)c2)CCCC3)cc1,100 µM
4,"CC1CCc2c(cc(-c3ccccc3)n2-c2nc(C(=O)O)cs2)C1 (stereo not drawn) [2-(5-methyl-2-phenyl-4,5,6,7-tetrahydroindol-1-yl) thiazole-4-carboxylic acid]",> 100 µM
5,"COc1ccc(-c2cc3c(n2-c2nc(C(=O)O)cs2)CCC(C(F)(F)F)C3)c(OC)c1 (stereo not drawn) [2-[2-(2,4-dimethoxyphenyl)-5-trifluoromethyl-4,5,6,7-tetrahydroindol-1-yl]-thiazole-4-carboxylic acid]",> 100 µM
6,"COc1ccc(-c2cc3c(n2-c2nc(C(=O)O)cs2)CCC(C(F)(F)F)C3)cc1OC (stereo not drawn) [2-[2-(3,4-dimethoxyphenyl)-5-trifluoromethyl-4,5,6,7-tetrahydroindol-1-yl]-thiazole-4-carboxylic acid]",> 100 µM
7,"c1cc(-c2nn[nH]n2)cc(-n2c(-c3ccc4c(c3)OCO4)cc3c4ccccc4ccc32)c1 [2-benzo[1,3]dioxol-5-yl-3-[3-(2H-tetrazol-5-yl)-phenyl]-3H-benzo[e]indole]",56 µM
8,"c1cc(-c2nn[nH]n2)cc(-n2c(-c3cc4ccccc4o3)cc3c2CCc2ccccc2-3)c1 [2-benzofuran-2-yl-3-[3-(2H-tetrazol-5-yl)-phenyl]-4,5-dihydro-3H-benzo[e]indole]",9.3 µM
9,c1ccc(-c2cc3c4ccccc4ccc3n2-c2cccc(-c3nn[nH]n3)c2)nc1 [2-pyridin-2-yl-3-[3-(2H-tetrazol-5-yl)-phenyl]-3H-benzo[e]indole],32 µM
10,"c1ccc(-c2cc3c(n2-c2cccc(-c4nn[nH]n4)c2)CCc2ccccc2-3)nc1 [2-pyridin-2-yl-3-[3-(2H-tetrazol-5-yl)-phenyl]-4,5-dihydro-3H-benzo[e]indole]",43 µM
11,c1cncc(-c2cc3c4ccccc4ccc3n2-c2cccc(-c3nn[nH]n3)c2)c1 [2-pyridin-3-yl-3-[3-(2H-tetrazol-5-yl)-phenyl]-3H-benzo[e]indole],46 µM
12,"c1cncc(-c2cc3c(n2-c2cccc(-c4nn[nH]n4)c2)CCc2ccccc2-3)c1 [2-pyridin-3-yl-3-[3-(2H-tetrazol-5-yl)-phenyl]-4,5-dihydro-3H-benzo[e]indole]",> 100 µM
13,"c1cc(-c2nn[nH]n2)cc(-n2c(-c3ccncc3)cc3c2CCc2ccccc2-3)c1 [2-pyridin-4-yl-3-[3-(2H-tetrazol-5-yl)-phenyl]-4,5-dihydro-3H-benzo[e]indole]",73 µM
14,"O=C(O)c1cccc(-n2c(-c3ccc4c(c3)OCO4)cc3c2CCc2ccccc2-3)c1 [3-(2-benzo[1,3]dioxol-5-yl-4,5-dihydrobenzo[e]indol-3-yl) benzoic acid]",18 µM
15,"O=C(O)c1cccc(-n2c(-c3ccc4c(c3)OCO4)cc3c4ccccc4ccc32)c1 [3-(2-benzo[1,3]dioxol-5-yl-benzo[e]indol-3-yl) benzoic acid]",20 µM
16,"O=C(O)c1cccc(-n2c(-c3cc4ccccc4o3)cc3c2CCc2ccccc2-3)c1 [3-(2-benzofuran-2-yl-4,5-dihydrobenzo[e]indol-3-yl) benzoic acid]",0.56 µM
17,O=C(O)c1cccc(-n2c(-c3cc4ccccc4o3)cc3c4ccccc4ccc32)c1 [3-(2-benzofuran-2-yl-benzo[e]indol-3-yl) benzoic acid],1.17 µM
18,"O=C(O)c1cccc(-n2c(-c3ccccc3)cc3c2CC(c2ccccn2)CC3)c1 (stereo not drawn) [3-(2-phenyl-6-pyridin-2-yl-4,5,6,7-tetrahydroindol-1-yl) benzoic acid]",70.8 µM
19,"O=C(O)c1cccc(-n2c(-c3ccccn3)cc3c2CCc2ccccc2-3)c1 [3-(2-pyridin-2-yl-4,5-dihydrobenzo[e]indol-3-yl) benzoic acid]",70 µM
20,O=C(O)c1cccc(-n2c(-c3ccccn3)cc3c4ccccc4ccc32)c1 [3-(2-pyridin-2-yl-benzo[e]indol-3-yl) benzoic acid],79 µM
21,"O=C(O)c1cccc(-n2c(-c3cccnc3)cc3c2CCc2ccccc2-3)c1 [3-(2-pyridin-3-yl-4,5-dihydrobenzo[e]indol-3-yl) benzoic acid]",> 100 µM

row,Structure (SMILES),IC50
1,O=C(O)c1cccc(-n2c(-c3cccnc3)cc3c4ccccc4ccc32)c1 [3-(2-pyridin-3-yl-benzo[e]indol-3-yl) benzoic acid],> 100 µM
2,"O=C(O)c1cccc(-n2c(-c3ccncc3)cc3c2CCc2ccccc2-3)c1 [3-(2-pyridin-4-yl-4,5-dihydrobenzo[e]indol-3-yl) benzoic acid]",65 µM
3,O=C(O)c1cccc(-n2c(-c3ccncc3)cc3c4ccccc4ccc32)c1 [3-(2-pyridin-4-yl-benzo[e]indol-3-yl) benzoic acid],81 µM
4,O=C(O)c1cccc(-n2c(-c3ccsc3)cc3c4ccccc4ccc32)c1 [3-(2-thiophen-3-yl-benzo[e]indol-3-yl) benzoic acid],13.2 µM
5,"O=C(O)c1cccc(-n2nc(-c3ccccc3)cc2-c2ccccc2)c1 [3-(3,5-diphenyl-pyrazol-1-yl)-benzoic acid]",> 100 µM
6,O=C(O)c1cccc(-c2cc3c4ccccc4ccc3n2-c2ccoc2)c1 [3-(3-furan-3-yl-3H-benzo[e]indol-2-yl) benzoic acid],> 100 µM
7,O=C(O)c1cccc(-c2cc3c(n2-c2cccnc2)CCc2ccccc2-3)c1 [3-(3-pyridin-3-yl-4 5-dihydro-3H-benzo[e]indol-2-yl) benzoic acid],> 100 µM
8,Cc1onc(-c2ccccc2)c1-c1cc2c3ccccc3ccc2n1-c1cccc(C(=O)O)c1 [3-[2-(5-methyl-3-phenylisoxazol-4-yl)-benzo[e]indol-3-yl] benzoic acid],40 µM
9,"CCC(C)(C)C1CCc2c(cc(-c3cc4ccccc4o3)n2-c2cccc(C(=O)O)c2)C1 (stereo not drawn) [3-[2-benzofuran-2-yl-5-(1,1-dimethylpropyl) 4,5,6,7-tetrahydroindol-1-yl] benzoic acid]",3.7 µM
10,c1cc(-c2nn[nH]n2)cc(-n2c(-c3ccsc3)cc3c4ccccc4ccc32)c1 [3-[3-(2H-tetrazol-5-yl)-phenyl]-2-thiophen-3-yl-3H benzo[e]indole],31 µM
11,"O=C(O)c1cccc(-n2c(-c3ccc(-c4ccc(Cl)cc4Cl)o3)cc3c4ccccc4ccc32)c1 [3-{2-[5-(2,4-dichlorophenyl)-furan-2-yl]-benzo[e]indol-3-yl} benzoic acid]",33 µM
12,O=C(O)c1ccc(-c2cc3c4ccccc4ccc3n2-c2ccoc2)cc1 [4-(3-furan-3-yl-3H-benzo[e]indol-2-yl) benzoic acid],> 100 µM
13,"O=C(O)c1ccc(-c2cc3c(n2-c2cccnc2)CCc2ccccc2-3)cc1 [4-(3-pyridin-3-yl-4,5-dihydro-3H-benzo[e]indol-2-yl) benzoic acid]",> 100 µM
14,O=C(O)CCCc1ccc(-n2c(-c3ccc(-c4ccc(Cl)cc4Cl)o3)cc3c4ccccc4ccc32)cc1 [4-(4-{2-[5-(2 4-dichlorophenyl)-furan-2-yl]-benzo[e]indol-3-yl}-phenyl) butyric acid],17 µM
15,"O=C(O)CCCc1ccc(-n2c(-c3ccc4c(c3)OCO4)cc3c2CCc2ccccc2-3)cc1 [4-[4-(2-benzo[1,3]dioxol-5-yl-dihydrobenzo[e]indol-3-yl)-phenyl] butyric acid]",8.8 µM
16,O=C(O)CCCc1ccc(-n2c(-c3cc(-c4ccccc4)no3)cc3c4ccccc4ccc32)cc1 [4-{4-[2-(3-phenylisoxazol-5-yl)-benzo[e]indol-3-yl]-phenyl} butyric acid],4.5 µM
17,"Cc1onc(-c2ccccc2)c1-c1cc2c(n1-c1ccc(CCCC(=O)O)cc1)CCc1ccccc1-2 [4-{4-[2-(5-methyl-3-phenylisoxazol-4-yl)-4,5-dihydrobenzo[e]indol-3-yl]-phenyl} butyric acid]",1.5 µM
18,Cc1onc(-c2ccccc2)c1-c1cc2c3ccccc3ccc2n1-c1ccc(CCCC(=O)O)cc1 [4-{4-[2-(5-methyl-3-phenylisoxazol-4-yl)-benzo[e]indol-3-yl]-phenyl} butyric acid],1 µM
19,"O=C(O)c1ccc(-n2c(-c3cc4ccccc4o3)cc3c2CCC(C(F)(F)F)C3)o1 (stereo not drawn) [5-(2-benzofuran-2-yl-5-trifluoromethyl-4,5,6,7-tetrahydroindol-1-yl)-furan-2-carboxylic acid]",44 µM
20,"O=C(O)c1ccc(-n2c(-c3cc4ccccc4o3)cc3c2CC(C(F)(F)F)CC3)o1 (stereo not drawn) [5-(2-benzofuran-2-yl-6-trifluoromethyl-4,5,6,7-tetrahydroindol-1-yl)-furan-2-carboxylic acid]",23 µM
21,O=C(O)c1ccc(-n2c(-c3cc4ccccc4o3)cc3c4ccccc4ccc32)o1 [5-(2-benzofuran-2-yl-benzo[e]indol-3-yl) furan-2-carboxylic acid],22 µM

# Source: patent US9034871B2, “Compounds for Alzheimer's disease” (priority 2004, dated 2015)
